Experimental data reported in US20090186868A1, “Taxane Compound Having Azetidine Ring Structure” (Daiichi Sankyo Company Limited, priority 2005, published 2009).
Values after ≈ are worked out from the molar mass of the structure shown. Read-outs that look alike come from different tables or passages of the source.

What was measured:
[1] = test system: NCI-H460 (human lung cancer cell line); assay: Anti-cell activity (MTT) against human tumor cell line NCI-H460; type: cell-based; settings: 72 h, NCI-H460, cultured three days, read-out: NCI-H460 (GI50 value, ng/mL)
Description: (§1) Three types of human tumor cell lines (all of the cells were obtained from American Type Culture Collection) were seeded on 96-well microplates as follows.
(§2) NCI-H460 (human lung cancer cell line): 5.0×10^2 cells/190 μL/well HCT-15 (P glycoprotein (P-gp) expressing human colon cancer cell line, J. Natl. Cancer Inst., 2001, 93:1234-1245): 1.0×10^3 cells/190 μL/well HCT116 (human colon cancer cell line): 1.0×10^3 cells/190 μL/well On the next day, each test compound was dissolved in 100% dimethyl sulfoxide (DMSO) at a concentration of 10 mg/mL. This solution was diluted with 0.01% Cremophor EL-PBS(−) (Cremophor EL: Sigma Chemical Co., St. Louis, Mo., USA, PBS: Invitrogen Corp., Carlsbad, Calif., USA), and 10 μL of the diluted solution was added to each well (final concentration: 100 to 0.000381 ng/mL). The cells were cultured for three days, and then […] of a 5 mg/mL solution of 3-(4,5-dimethylthiazol-2-yl)-2,5-diphenyl-2H-tetrazolium bromide (MTT, Sigma Chemical Co.) was added to each well. The cells were further cultured for 4 hours, and then the medium was removed by centrifugation. By adding 150 μL of DMSO to each well, the produced formazan product was dissolved. The absorbance of the solution was measured at 540 nm. The drug concentration suppressing cell proliferation of the drug addition group to 50% of the cell proliferation of the drug free group (GI50 value, ng/mL) was calculated, and used as an index of anti-cell activity.

[2] = test system: HCT-15 (P glycoprotein (P-gp) expressing human colon cancer cell line); assay: Anti-cell activity (MTT) against human tumor cell line HCT-15; type: cell-based; settings: 72 h, HCT-15 (P-gp expressing), cultured three days, read-out: HCT-15 (GI50 value, ng/mL)
Description: as §1, §2

[3] = test system: HCT116 (human colon cancer cell line); assay: Anti-cell activity (MTT) against human tumor cell line HCT116; type: cell-based; settings: HCT-116, 72 h, HCT116, cultured three days, read-out: HCT116 (GI50 value, ng/mL)
Description: as §1, §2

B16 melanoma BL6 = assay: Antitumor effect in mice subcutaneously transplanted with B16 melanoma BL6; type: in vivo, Mice (C57BL/6); settings: for Therapeutic index: MTD/MED; for Effective dose range: range from MED to MTD, antitumor effect of 58% or more considered effective
Description: (§3) Mice (C57BL/6, Charles River Japan) were subcutaneously transplanted with B16 melanoma BL6 (Cancer Res., Poste, G., Fidler, I. J. et al., 1980, 40:1636; Bioorg. Med. Chem. Lett., Takeda, Y. et al., 2003, 13:185-190), or M5076 (obtained from Japanese Foundation for Cancer Research), which is a histiocytoma expressing P-gp. Four days after the transplantation in the case of B16 melanoma BL6, or 8 to 10 days after the transplantation in the case of M5076, each test compound suspended in a 0.5% aqueous solution of carboxymethylcellulose sodium, or dissolved in EtOH:Tween 80:5% glucose=5:5:90 (v/v %) was orally (po) or intravenously (iv) administered to the mice. Ten days after the administration in the case of B16 melanoma BL6, or 8 to 10 days after the administration in the case of M5076, the mice were dissected, and tumor weights were measured. The antitumor effect was calculated in accordance with the following equation.
(§4) [1−(Average tumor weight of compound administration group/average tumor weight of solvent administration group)]×100
(§5) An antitumor effect of 58% or more was considered effective (Int. J. Cancer, 1989, 43:637-44), and the maximum tolerance dose (MTD, maximum dose not causing death, mg/kg) and minimum effective dose (MED, mg/kg) showing effectiveness were obtained, respectively. The therapeutic index was calculated in accordance with the equation: MTD/MED.
(§6) ND means that the test was not performed. The effective dose range means the range of from MED to MTD.

[4] = Solubility in first and second solution for disintegration test (Japanese Pharmacopoeia); type: physicochemical; settings: for solubility: thermodynamic from solid
Description: Solubility of each compound was determined in the first solution for disintegration test according to Japanese Pharmacopoeia (henceforth referred to as the first solution, solution obtained by adding 7 mL of hydrochloric acid and water to 2.00 g of sodium chloride to dissolve sodium chloride and fill up the solution to 1000 mL, pH 1.2) and the second solution for disintegration test according to Japanese Pharmacopoeia (henceforth referred to as the second solution, solution obtained by adding 118 mL of 0.2 mol/L solution of sodium hydroxide to 6.80 g of potassium dihydrogenphosphate, adding water to the mixture to dissolve potassium dihydrogenphosphate and filling up the solution to 1000 mL, pH 6.8).
Each test compound was dissolved in 100% dimethyl sulfoxide (DMSO) at a concentration of 10 mM, and 50 μL of the solution was lyophilized. The lyophilized test compound was added with 250 μL of the first solution or second solution, and the mixture was stored at room temperature for 12 hours or longer under light shielding, and filtered (0.7 μm). The filtrate was taken in a volume of 90 μL, and added with 50% DMSO (90 μL) to obtain a two-fold diluted solubility sample. The two-fold dilution solubility sample was taken in a volume of 20 μL, and added with 50% DMSO (180 μL) to obtain a […] diluted solubility sample. Solubility of each test sample was determined by quantifying the test compound in the resulting diluted solubility test samples using high-performance liquid chromatography.

[5] = test system: M5076 (histiocytoma expressing P-gp); assay: Antitumor effect in mice subcutaneously transplanted with M5076; type: in vivo, Mice (C57BL/6); settings: for Therapeutic index: MTD/MED; for Effective dose range: range from MED to MTD, antitumor effect of 58% or more considered effective
Description: as §3, §4, §5, §6

[6] = aqueous buffer, second solution for disintegration test, pH 6.8, room temperature, 12 hours or longer, read-out: Solubility (μg/mL) pH 6.8
[7] = simulated gastric fluid, first solution for disintegration test, pH 1.2, room temperature, 12 hours or longer, read-out: Solubility (μg/mL) pH 1.2
[8] = pH 1.2, simulated gastric fluid

| Structure (SMILES) | GI50 [1] | GI50 [2] | GI50 [3] | Therapeutic index (B16 melanoma BL6; B16 Melanoma BL6, po) | solubility [4, 6] | solubility [4, 7] | solubility [4, 8] | solubility ([4]; pH 6.8, aqueous buffer) | Therapeutic index ([5]; M5076, po) | Effective dose range ([5]; M5076, po) | Therapeutic index (B16 melanoma BL6; B16 Melanoma BL6, iv) | Effective dose range (B16 melanoma BL6; B16 Melanoma BL6, iv) | Effective dose range (B16 melanoma BL6; B16 Melanoma BL6, po) | Therapeutic index ([5]; M5076, iv) | Effective dose range ([5]; M5076, iv) | Solubility (μg/mL) pH 1.2 ([4]; first solution for disintegration test, pH 1.2, room temperature, 12 hours or longer) | Solubility (μg/mL) pH 6.8 ([4]; second solution for disintegration test, pH 6.8, room temperature, 12 hours or longer) |
| --- | --- | --- | --- | --- | --- | --- | --- | --- | --- | --- | --- | --- | --- | --- | --- | --- | --- |
| CC(=O)O[C@@]12CO[C@@H]1CC[C@@]1(C)[C@@H]3O[C@H](CN4CCC4)O[C@@H]3C3=C(C)[C@@H](OC(=O)[C@H](O)[C@@H](NC(=O)OC(C)(C)C)c4ccccn4)C[C@@](O)([C@@H](OC(=O)c4ccccc4)[C@@H]12)C3(C)C [Example 1, (1S,2S,3R,4S,5R,8R,9S,10R,13S)-4-(Acetoxy)-9,10-[(1S)-2-(azetidino)ethylidenedioxy]-2-(benzoyloxy)-5,20-epoxy-1-hydroxytax-11-en-13-yl (2R,3S)-3-(tert-butoxycarbonylamino)-2-hydroxy-3-(2-pyridyl)propionate] | 0.19 ng/mL (≈ 0.000217 µM) | 1.14 ng/mL (≈ 0.0013 µM) | 0.244 ng/mL (≈ 0.000279 µM) | 2.9 | 170 µg/mL (≈ 194 µM) | 1200 µg/mL (≈ 1370 µM) | – | – | – | – | – | – | – | – | – | – | – |
| CC(=O)O[C@H]1C(=O)[C@@]2(C)[C@H]([C@H](OC(=O)c3ccccc3)[C@]3(O)C[C@H](OC(=O)[C@H](O)[C@@H](NC(=O)c4ccccc4)c4ccccc4)C(C)=C1C3(C)C)[C@]1(OC(C)=O)CO[C@@H]1C[C@@H]2O [Paclitaxel, reference compound] | 1.87 ng/mL (≈ 0.00219 µM) | > 100 ng/mL | 1.71 ng/mL (≈ 0.002 µM) | – | – | – | < 4 µg/mL | < 4 µg/mL | – | – | – | – | – | – | – | – | – |
| CC(=O)O[C@@]12CO[C@@H]1CC[C@@]1(C)[C@@H]3O[C@H](CN4CC(C)(O)C4)O[C@@H]3C3=C(C)[C@@H](OC(=O)[C@H](O)[C@@H](NC(=O)OC(C)(C)C)c4ccccn4)C[C@@](O)([C@@H](OC(=O)c4ccccc4)[C@@H]12)C3(C)C [Example 11, (1S,2S,3R,4S,5R,8R,9S,10R,13S)-4-(Acetoxy)-2-(benzoyloxy)-5,20-epoxy-1-hydroxy-9,10-[(1S)-2-(3-hydroxy-3-methylazetidino)ethylidenedioxy]tax-11-en-13-yl (2R,3S)-3-(tert-butoxycarbonylamino)-2-hydroxy-3-(2-pyridyl)propionate] | 0.109 ng/mL (≈ 0.00012 µM) | 4.21 ng/mL (≈ 0.00465 µM) | 0.173 ng/mL (≈ 0.000191 µM) | 5.9 | 170 µg/mL (≈ 188 µM) | 1300 µg/mL (≈ 1430 µM) | – | – | – | – | – | – | – | – | – | – | – |
| CC(=O)O[C@@]12CO[C@@H]1CC[C@@]1(C)[C@@H]3O[C@H](CN4CC(O)C4)O[C@@H]3C3=C(C)[C@@H](OC(=O)[C@H](O)[C@@H](NC(=O)OC(C)(C)C)c4ccccn4)C[C@@](O)([C@@H](OC(=O)c4ccccc4)[C@@H]12)C3(C)C [Example 5, (1S,2S,3R,4S,5R,8R,9S,10R,13S)-4-(Acetoxy)-2-(benzoyloxy)-5,20-epoxy-1-hydroxy-9,10-[(1S)-2-(3-hydroxyazetidino)ethylidenedioxy]tax-11-en-13-yl (2R,3S)-3-(tert-butoxycarbonylamino)-2-hydroxy-3-(2-pyridyl)propionate] | 0.162 ng/mL (≈ 0.000182 µM) | 8.08 ng/mL (≈ 0.00906 µM) | 0.229 ng/mL (≈ 0.000257 µM) | 6.0 | 140 µg/mL (≈ 157 µM) | 1000 µg/mL (≈ 1120 µM) | – | – | 1.0 | 30.0 mg/kg | – | – | – | – | – | – | – |
| CC(=O)O[C@@]12CO[C@@H]1CC[C@@]1(C)[C@@H]3O[C@H](CN4CC(O)C4)O[C@@H]3C3=C(C)[C@@H](OC(=O)[C@H](O)[C@@H](NC(=O)OC(C)(C)C)c4ncccc4F)C[C@@](O)([C@@H](OC(=O)c4ccccc4)[C@@H]12)C3(C)C [Example 6, (1S,2S,3R,4S,5R,8R,9S,10R,13S)-4-(Acetoxy)-2-(benzoyloxy)-5,20-epoxy-1-hydroxy-9,10-[(1S)-2-(3-hydroxyazetidino)ethylidenedioxy]tax-11-en-13-yl (2R,3S)-3-(tert-butoxycarbonylamino)-3-(3-fluoro-2-pyridyl)-2-hydroxypropionate] | 0.172 ng/mL (≈ 0.000189 µM) | 7.94 ng/mL (≈ 0.00873 µM) | 0.183 ng/mL (≈ 0.000201 µM) | 4.2 | – | – | 690 µg/mL (≈ 758 µM) | 87 µg/mL (≈ 95.6 µM) | 2.0 | 18.6 to 38.0 mg/kg | – | – | – | – | – | – | – |
| CC[C@H](NC(=O)OC(C)(C)C)[C@@H](O)C(=O)O[C@H]1C[C@@]2(O)[C@@H](OC(=O)c3ccccc3)[C@H]3[C@@](C)(CC[C@H]4OC[C@]43OC(C)=O)[C@@H]3O[C@H](CN4CCC4)O[C@@H]3C(=C1C)C2(C)C [Example 37, (1S,2S,3R,4S,5R,8R,9S,10R,13S)-4-(Acetoxy)-9,10-[(1S)-2-(azetidino)ethylidenedioxy]-2-(benzoyloxy)-5,20-epoxy-1-hydroxy-tax-11-en-13-yl (2R,3S)-3-(tert-butoxycarbonylamino)-2-hydroxypentanoate] | – | – | – | 2.0 | – | – | – | – | – | – | 4.2 | 7.21 to 30.0 mg/kg | 14.7 to 30.0 mg/kg | 1.4 | 14.7 to 21.0 mg/kg | 670 μg/mL | 210 μg/mL |
| CC(=O)O[C@@]12CO[C@@H]1CC[C@@]1(C)[C@@H]3O[C@H](CN4CC[C@H]4CO)O[C@@H]3C3=C(C)[C@@H](OC(=O)[C@H](O)[C@@H](NC(=O)OC(C)(C)C)c4ncccc4F)C[C@@](O)([C@@H](OC(=O)c4ccccc4)[C@@H]12)C3(C)C [Example 22, (1S,2S,3R,4S,5R,8R,9S,10R,13S)-4-(Acetoxy)-2-(benzoyloxy)-5,20-epoxy-1-hydroxy-9,10-{(1S)-2-[(2S)-2-hydroxymethylazetidino]ethylidenedioxy}tax-11-en-13-yl (2R,3S)-3-(tert-butoxycarbonylamino)-3-(3-fluoro-2-pyridyl)-2-hydroxypropionate] | – | – | – | 4.2 | 85 µg/mL (≈ 92 µM) | 1100 µg/mL (≈ 1190 µM) | – | – | 2.0 | 17.2 to 35 mg/kg | 6.0 | – | – | 2.0 | 12.0 to 24.5 mg/kg | – | – |
